Experimental data: article PMC3047591 (Inorganic chemistry, 2011)

Legend:
[1] = target: T1, His93Gly sperm whale myoglobin (H93G Mb) (Physeter macrocephalus, UniProt P02185, H94G); assay: electronic absorption and MCD spectroscopy of mixed CHA/Im adduct; assay type: binding
[2] = target: T1, His93Gly sperm whale myoglobin (H93G Mb); assay: electronic absorption and MCD spectroscopy, titration; assay type: binding

T1 sequence (P02185 2-154 H94G): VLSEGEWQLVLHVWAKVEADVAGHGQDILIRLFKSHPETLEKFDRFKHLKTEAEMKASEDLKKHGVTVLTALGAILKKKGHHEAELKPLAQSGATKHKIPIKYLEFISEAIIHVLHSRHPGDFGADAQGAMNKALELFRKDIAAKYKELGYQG

| SMILES | electronic absorption and MCD spectroscopy of mixed CHA/Im adduct [1] | electronic absorption and MCD spectroscopy, titration [2] |
| --- | --- | --- |
| c1c[nH]cn1 [Im, imidazole] | the final spectrum is that of a nearly homogeneous Im/CHA mixed-ligand adduct |  |
| NC1CCCCC1 [CHA, cyclohexylamine] |  | ferric CHA-ligated H93G Mb is a six-coordinate high-spin H93G Mb derivative with the CHA amine group as the proximal donor |
